Patent publication US20260049071A1, “PROTEIN TYROSINE KINASE INHIBITOR AND MEDICAL USE THEREOF” (BEYANG THERAPEUTICS CO., LTD., priority 2022, published 2026)

How the values were obtained:
EGFR = EGFR (Homo sapiens (Human), UniProt P00533); experiment: Kinase inhibition, Mobility Shift Assay (EGFR); assay type: biochemical
Experimental: (§1) This assay directly monitored the ability of compounds to inhibit kinase phosphorylation by measuring non-phosphorylated and phosphorylated substrates in kinase reactions by using Mobility Shift Assays/IMAP™ analysis.
(§2) Add the kinase and DTT to 1× kinase buffer to form a 2.5× kinase solution; transfer 10 μL of 2.5× kinase solution to a 384-well reaction plate and add 1× kinase buffer to negative control wells. Incubate the plate for 10 min at room temperature; add FAM-labeled peptides, MgCl2, ATP and other reagents to 1× kinase buffer to form a 2.5× substrate solution; transfer 10 μL of the above 2.5× substrate solution to the 384-well reaction plate; incubate the plate at 28° C. for different times, and add 25 μL of stop solution to the 384-well reaction plate to stop the reaction. Read the conversion ratio data on CaliperEZ Reader II. Convert conversion rates into inhibition ratio data.
(§3) “Min” indicates the readout of the control well without the addition of kinase; and “Max” indicates the readout of the control well with the addition of DMSO. Fit IC50 values with XLFit excel add-in version 5.4.0.8.
(§4) X indicates the log value of compound concentration, and Y indicates the inhibition ratio (% inhibition).

KDR (VEGFR2) = KDR (VEGFR2) (Homo sapiens (Human), UniProt P35968); experiment: Kinase inhibition, Mobility Shift Assay (VEGFR2); assay type: biochemical
Experimental: as §1, §2, §3, §4

Sequence of EGFR (P00533 25-1210): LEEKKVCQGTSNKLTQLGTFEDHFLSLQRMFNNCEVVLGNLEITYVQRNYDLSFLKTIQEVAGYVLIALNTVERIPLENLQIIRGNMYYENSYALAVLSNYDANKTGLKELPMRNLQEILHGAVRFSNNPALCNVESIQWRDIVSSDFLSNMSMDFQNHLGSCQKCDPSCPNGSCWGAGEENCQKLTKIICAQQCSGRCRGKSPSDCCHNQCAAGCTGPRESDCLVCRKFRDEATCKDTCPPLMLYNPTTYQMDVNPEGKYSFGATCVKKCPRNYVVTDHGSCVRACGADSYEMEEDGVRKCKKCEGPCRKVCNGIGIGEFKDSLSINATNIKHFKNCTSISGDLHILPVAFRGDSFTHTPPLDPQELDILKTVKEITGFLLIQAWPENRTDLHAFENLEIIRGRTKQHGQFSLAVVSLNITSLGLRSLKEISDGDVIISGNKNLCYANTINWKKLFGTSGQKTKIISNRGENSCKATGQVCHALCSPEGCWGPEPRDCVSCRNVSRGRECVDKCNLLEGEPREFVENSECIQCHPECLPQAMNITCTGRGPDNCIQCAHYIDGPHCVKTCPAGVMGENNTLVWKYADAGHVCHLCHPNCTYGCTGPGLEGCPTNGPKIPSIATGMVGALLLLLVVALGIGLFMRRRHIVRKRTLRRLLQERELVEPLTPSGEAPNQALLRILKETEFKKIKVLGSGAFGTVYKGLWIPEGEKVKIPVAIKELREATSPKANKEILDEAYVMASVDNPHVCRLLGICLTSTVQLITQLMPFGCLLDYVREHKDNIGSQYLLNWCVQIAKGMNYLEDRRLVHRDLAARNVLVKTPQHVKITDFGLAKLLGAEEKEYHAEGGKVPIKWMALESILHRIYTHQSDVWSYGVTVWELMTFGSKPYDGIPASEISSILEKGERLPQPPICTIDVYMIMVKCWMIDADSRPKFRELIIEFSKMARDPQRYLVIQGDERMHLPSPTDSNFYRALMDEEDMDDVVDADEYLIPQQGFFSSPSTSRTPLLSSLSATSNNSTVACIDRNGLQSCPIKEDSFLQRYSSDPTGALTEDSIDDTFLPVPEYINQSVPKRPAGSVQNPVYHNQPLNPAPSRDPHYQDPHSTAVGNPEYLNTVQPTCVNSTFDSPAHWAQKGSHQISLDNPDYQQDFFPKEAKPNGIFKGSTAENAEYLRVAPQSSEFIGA
Sequence of KDR (VEGFR2) (P35968 790-1356): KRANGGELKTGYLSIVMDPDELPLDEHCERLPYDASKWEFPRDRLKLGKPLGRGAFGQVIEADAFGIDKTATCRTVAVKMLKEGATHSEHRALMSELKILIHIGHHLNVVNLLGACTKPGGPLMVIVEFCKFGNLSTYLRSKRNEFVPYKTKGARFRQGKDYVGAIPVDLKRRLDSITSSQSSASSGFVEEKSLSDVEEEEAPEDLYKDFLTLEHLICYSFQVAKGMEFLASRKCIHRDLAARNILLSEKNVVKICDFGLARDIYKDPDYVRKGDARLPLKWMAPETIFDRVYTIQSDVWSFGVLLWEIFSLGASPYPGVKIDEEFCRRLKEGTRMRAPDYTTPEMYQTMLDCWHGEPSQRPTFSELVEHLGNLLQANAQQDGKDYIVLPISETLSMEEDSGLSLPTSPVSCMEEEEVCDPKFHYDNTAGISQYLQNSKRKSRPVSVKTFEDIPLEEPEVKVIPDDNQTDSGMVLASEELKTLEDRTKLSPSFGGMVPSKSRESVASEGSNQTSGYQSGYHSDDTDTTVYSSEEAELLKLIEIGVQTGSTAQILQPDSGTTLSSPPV

CCN(CC)Cc1ccc(/C=C/c2n[nH]c3cc(Sc4cc(F)ccc4C(=O)NC)ccc23)nc1 [Compound I-92, 2-({3-[(E)-2-{5-[(diethylamino)methyl]pyridin-2-yl}vinyl]-1H-indazol-6-yl}thio)-4-fluoro-N-methylbenzamide]
IC50 (EGFR): 6000 to 60000 nM | IC50 (KDR (VEGFR2)): 1 to 10 nM

O=C(NC1CC1)c1cccc(F)c1Sc1ccc2c(/C=C/c3cc(OCCN4CCCC4)ccn3)n[nH]c2c1 [Compound I-112, N-cyclopropyl-3-fluoro-2-({3-[(E)-2-{4-[2-(pyrrolidin-1-yl)ethoxy]pyridin-2-yl}vinyl]-1H-indazol-6-yl}thio)benzamide]
IC50 (EGFR): 6000 to 60000 nM | IC50 (KDR (VEGFR2)): 10 to 100 nM

O=C(NC1CC1)c1cc(F)ccc1Sc1ccc2c(/C=C/c3cc(CN4CCCC4)ccn3)n[nH]c2c1 [Compound I-137, N-cyclopropyl-5-fluoro-2-({3-[(E)-2-{4-[(pyrrolidin-1-yl)methyl]pyridin-2-yl}vinyl]-1H-indazol-6-yl}thio)benzamide]
IC50 (EGFR): > 60000 nM | IC50 (KDR (VEGFR2)): 1 to 10 nM

O=C(NC1CC1)c1cc(F)ccc1Sc1ccc2c(/C=C/c3cccc(CCCN4CCCC4)n3)n[nH]c2c1 [Compound I-132, N-cyclopropyl-5-fluoro-2-({3-[(E)-2-{6-[3-(pyrrolidin-1-yl)propyl]pyridin-2-yl}vinyl]-1H-indazol-6-yl}thio)benzamide]
IC50 (EGFR): 6000 to 60000 nM | IC50 (KDR (VEGFR2)): 1 to 10 nM

O=C(NC1CC1)c1ccccc1Sc1ccc2c(/C=C/c3cc(CCN4CCCC4)ccn3)n[nH]c2c1 [Compound I-133, N-cyclopropyl-2-({3-[(E)-2-{4-[2-(pyrrolidin-1-yl)ethyl]pyridin-2-yl}vinyl]-1H-indazol-6-yl}thio)benzamide]
IC50 (EGFR): > 60000 nM | IC50 (KDR (VEGFR2)): 1 to 10 nM

CCNC(=O)c1cccc(F)c1Sc1ccc2c(/C=C/c3cccc(CCN4CCCC4)n3)n[nH]c2c1 [Compound I-129, N-ethyl-3-fluoro-2-({3-[(E)-2-{6-[2-(pyrrolidin-1-yl)ethyl]pyridin-2-yl}vinyl]-1H-indazol-6-yl}thio)benzamide]
IC50 (EGFR): > 60000 nM | IC50 (KDR (VEGFR2)): 10 to 100 nM

CCN(CC)CCc1ccc(/C=C/c2n[nH]c3cc(Sc4cc(F)ccc4C(=O)NC4CC4)ccc23)nc1 [Compound I-108, N-cyclopropyl-2-({3-[(E)-2-{5-[2-(diethylamino)ethyl]pyridin-2-yl}vinyl]-1H-indazol-6-yl}thio)-4-fluorobenzamide]
IC50 (EGFR): 6000 to 60000 nM | IC50 (KDR (VEGFR2)): ≤ 1 nM

O=C(NC1CC1)c1cc(F)ccc1Sc1ccc2c(/C=C/c3cnn(CCCN4CCCC4)c3)n[nH]c2c1 [Compound I-46, N-cyclopropyl-5-fluoro-2-({3-[(E)-2-{1-[3-(pyrrolidin-1-yl)propyl]-1H-pyrazol-4-yl}vinyl]-1H-indazol-6-yl}thio)benzamide]
IC50 (EGFR): 6000 to 60000 nM | IC50 (KDR (VEGFR2)): ≤ 1 nM

CCNC(=O)c1cc(F)ccc1Sc1ccc2c(/C=C/c3cc(CCCN4CCCC4)ccn3)n[nH]c2c1 [Compound I-122, N-ethyl-5-fluoro-2-({3-[(E)-2-{4-[3-(pyrrolidin-1-yl)propyl]pyridin-2-yl}vinyl]-1H-indazol-6-yl}thio)benzamide]
IC50 (EGFR): > 60000 nM | IC50 (KDR (VEGFR2)): 1 to 10 nM

CCNC(=O)c1cccc(F)c1Sc1ccc2c(/C=C/c3ccc(CN(CC)CC)cn3)n[nH]c2c1 [Compound I-111, 2-({3-[(E)-2-{5-[(diethylamino)methyl]pyridin-2-yl}vinyl]-1H-indazol-6-yl}thio)-N-ethyl-3-fluorobenzamide]
IC50 (EGFR): 6000 to 60000 nM | IC50 (KDR (VEGFR2)): 1 to 10 nM

O=C(NC1CC1)c1cc(F)ccc1Sc1ccc2c(/C=C/c3cccc(CCN4CCCC4)n3)n[nH]c2c1 [Compound I-136, N-cyclopropyl-5-fluoro-2-({3-[(E)-2-{6-[2-(pyrrolidin-1-yl)ethyl]pyridin-2-yl}vinyl]-1H-indazol-6-yl}thio)benzamide]
IC50 (EGFR): > 60000 nM | IC50 (KDR (VEGFR2)): 1 to 10 nM

CNC(=O)c1ccccc1Sc1ccc2c(/C=C/c3ccc(CN4CCCC4)cn3)n[nH]c2c1 [Compound I-74, N-methyl-2-({3-[(E)-2-{5-[(pyrrolidin-1-yl)methyl]pyridin-2-yl}vinyl]-1H-indazol-6-yl}thio)benzamide]
IC50 (EGFR): 6000 to 60000 nM | IC50 (KDR (VEGFR2)): 1 to 10 nM

O=C(NC1CC1)c1ccccc1Sc1ccc2c(/C=C/c3ccn(CCN4CCCC4)n3)n[nH]c2c1 [Compound I-60, N-cyclopropyl-2-({3-[(E)-2-{1-[2-(pyrrolidin-1-yl)ethyl]-1H-pyrazol-3-yl}vinyl]-1H-indazol-6-yl}thio)benzamide]
IC50 (EGFR): 600 to 6000 nM | IC50 (KDR (VEGFR2)): 1 to 10 nM

O=C(NC1CC1)c1ccccc1Oc1ccc2c(/C=C/c3ccc(CN4CCCC4)cn3)n[nH]c2c1 [Compound I-81, N-cyclopropyl-2-({3-[(E)-2-{5-[(pyrrolidin-1-yl)methyl]pyridin-2-yl}vinyl]-1H-indazol-6-yl}oxy)benzamide]
IC50 (EGFR): 6000 to 60000 nM | IC50 (KDR (VEGFR2)): 10 to 100 nM

O=C(NC1CC1)c1cccc(F)c1Sc1ccc2c(/C=C/c3cccc(CCN4CCCC4)n3)n[nH]c2c1 [Compound I-128, N-cyclopropyl-3-fluoro-2-({3-[(E)-2-{6-[2-(pyrrolidin-1-yl)ethyl]pyridin-2-yl}vinyl]-1H-indazol-6-yl}thio)benzamide]
IC50 (EGFR): > 60000 nM | IC50 (KDR (VEGFR2)): 10 to 100 nM

O=C(NC1CC1)c1cc(F)ccc1Sc1ccc2c(/C=C/c3cc(CCN4CCCC4)ccn3)n[nH]c2c1 [Compound I-135, N-cyclopropyl-5-fluoro-2-({3-[(E)-2-{4-[2-(pyrrolidin-1-yl)ethyl]pyridin-2-yl}vinyl]-1H-indazol-6-yl}thio)benzamide]
IC50 (EGFR): > 60000 nM | IC50 (KDR (VEGFR2)): 10 to 100 nM

CCNC(=O)c1ccc(Sc2ccc3c(/C=C/c4ccc(CN(CC)CC)cn4)n[nH]c3c2)cc1F [Compound I-87, 4-({3-[(E)-2-{5-[(diethylamino)methyl]pyridin-2-yl}vinyl]-1H-indazol-6-yl}thio)-N-ethyl-2-fluorobenzamide]
IC50 (EGFR): > 60000 nM | IC50 (KDR (VEGFR2)): > 100 nM

O=C(NC1CC1)c1cccc(F)c1Sc1ccc2c(/C=C/c3cc(CCCN4CCCC4)ccn3)n[nH]c2c1 [Compound I-123]
IC50 (EGFR): > 60000 nM | IC50 (KDR (VEGFR2)): 10 to 100 nM

CCNC(=O)c1cccc(F)c1Sc1ccc2c(/C=C/c3cnn(CCCN4CCCC4)c3)n[nH]c2c1 [Compound I-102]
IC50 (EGFR): 6000 to 60000 nM | IC50 (KDR (VEGFR2)): 10 to 100 nM

O=C(NC1CC1)c1cc(F)ccc1Sc1ccc2c(/C=C/c3cccc(CN4CCCC4)n3)n[nH]c2c1 [Compound I-138, N-cyclopropyl-5-fluoro-2-({3-[(E)-2-{6-[(pyrrolidin-1-yl)methyl]pyridin-2-yl}vinyl]-1H-indazol-6-yl}thio)benzamide]
IC50 (EGFR): > 60000 nM | IC50 (KDR (VEGFR2)): 1 to 10 nM

CCNC(=O)c1ccc(F)cc1Sc1ccc2c(/C=C/c3cnn(CCCN4CCCC4)c3)n[nH]c2c1 [Compound I-103, N-ethyl-4-fluoro-2-({3-[(E)-2-{1-[3-(pyrrolidin-1-yl)propyl]-1H-pyrazol-4-yl}vinyl]-1H-indazol-6-yl}thio)benzamide]
IC50 (EGFR): 6000 to 60000 nM | IC50 (KDR (VEGFR2)): ≤ 1 nM

O=C(NC1CC1)c1cccc(F)c1Sc1ccc2c(/C=C/c3cccc(CCCN4CCCC4)n3)n[nH]c2c1 [Compound I-124]
IC50 (EGFR): 6000 to 60000 nM | IC50 (KDR (VEGFR2)): 10 to 100 nM

CCNC(=O)c1cccc(F)c1Sc1ccc2c(/C=C/c3cc(CN4CCCC4)ccn3)n[nH]c2c1 [Compound I-114, N-ethyl-3-fluoro-2-({3-[(E)-2-{4-[(pyrrolidin-1-yl)methyl]pyridin-2-yl}vinyl]-1H-indazol-6-yl}thio)benzamide]
IC50 (EGFR): > 60000 nM | IC50 (KDR (VEGFR2)): > 100 nM

O=C(NC1CC1)c1ccccc1Sc1ccc2c(C#Cc3ccc(OCCN4CCCC4)cn3)n[nH]c2c1 [Compound I-139, N-cyclopropyl-2-{[3-(2-{5-[2-(pyrrolidin-1-yl)ethoxy]pyridin-2-yl}ethynyl)-1H-indazol-6-yl]thio}benzamide]
IC50 (EGFR): > 60000 nM | IC50 (KDR (VEGFR2)): 10 to 100 nM

CCNC(=O)c1cccc(F)c1Sc1ccc2c(/C=C/c3ccc(CN4CCCC4)cn3)n[nH]c2c1 [Compound I-75, N-ethyl-3-fluoro-2-({3-[(E)-2-{5-[(pyrrolidin-1-yl)methyl]pyridin-2-yl}vinyl]-1H-indazol-6-yl}thio)benzamide]
IC50 (EGFR): 6000 to 60000 nM | IC50 (KDR (VEGFR2)): 1 to 10 nM

O=C(NC1CC1)c1cccc(F)c1Sc1ccc2c(/C=C/c3ccn(CCN4CCCC4)n3)n[nH]c2c1 [Compound I-69]
IC50 (EGFR): 6000 to 60000 nM | IC50 (KDR (VEGFR2)): 10 to 100 nM

CNC(=O)c1cc(F)ccc1Sc1ccc2c(/C=C/c3ccc(CN4CCCC4)cn3)n[nH]c2c1 [Compound I-95, 5-fluoro-N-methyl-2-({3-[(E)-2-{5-[(pyrrolidin-1-yl)methyl]pyridin-2-yl}vinyl]-1H-indazol-6-yl}thio)benzamide]
IC50 (EGFR): 6000 to 60000 nM | IC50 (KDR (VEGFR2)): 1 to 10 nM
